In US12410229B2, “PTH mimetic peptide based on protein domain reconstruction and application thereof” (priority 2018, dated 2025):

What was measured:
[1] = system: Primary osteoblasts of mouse skulls; experiment: Intermittent (4 h/48 h) PTH mimetic peptide stimulation, osteoblast differentiation (ALP, calcium nodules); format: cell-based
Experimental: Osteoblasts were isolated from the skulls of newborn mice and cultured in vitro. The cell at density of 1×10^5/well was inoculated in a 24-well culture plate. After 3 days, a 4 h/48 h intermittent PTH mimetic peptide stimulation experiment was started, which the PTH mimetic peptide was added to the culture system at the corresponding concentration (containing 10% serum+α-MEM Culture medium). After 4 hours, the culture solution was aspirated, the adherent cells were gently washed once with α-MEM medium, then 10% serum+α-MEM medium was added and continued culturing for 44 hours. Repeated this cycle. Concentration: MY-1 peptide 10^−6 M, PTH (1-34) peptide 10^−8 M, MY-3 peptide 10^−8 M.
Alkaline phosphatase staining was performed after 2 weeks, and calcium nodule staining was performed after 4 weeks (FIG. 1A, upper two rows of the holes). Alkaline phosphatase expression and calcium ion concentration of each well were quantitative detected (FIGS. 1B and 1C).
(§1) Primary osteoblasts (two rows of the holes in A) of mouse skulls were intermittently treated with PTH (1-34), MY-3 and MY-1. (within 48 hours, PTH peptide was added to the medium for 4 hours, removed, and cultured in the ordinary medium for 44 hours, then started all over again). At 2 weeks, alkaline phosphatase (ALP) staining (A) and quantification (B) wells were performed in the cell culture. 4 Weekly, calcium nodule staining (A) and calcium ion quantification (C) were performed in culture wells. Bone marrow cells in the femoral shaft bone marrow cavity (lower hole A) received the same treatment with three peptides mentioned above. Two weeks later, tartrate resistant acid phosphatase (TRAP) staining (A) and quantification (D) were performed. […] The same experiment was repeated three times, and same results were obtained. *P<0.05 vs control group (CON), #P<0.05 vs PTH (1-34).

[2] = system: Bone marrow cells from the bone marrow cavity of 7-week-old mice; experiment: Intermittent (4 h/48 h) PTH mimetic peptide stimulation, osteoclast formation (TRAP); format: cell-based, mouse
Experimental: Bone marrow cells from the bone marrow cavity of 7-week-old mice were extracted and cultured in 24-well plates at a density of 1×10^5/well. The 4 h/48 h intermittent PTH mimetic peptide stimulation experiment was carried out as described above. After 7 days, tartrate resistant acid phosphatase (TRAP) staining (bottom row of the holes in FIG. 1A) and quantification were performed (FIG. 1D).
as §1

[3] = system: Primary osteoblasts of mouse skulls; experiment: Continuous PTH mimetic peptide stimulation, osteoblast differentiation (ALP, calcium nodules); format: cell-based
Experimental: Osteoblasts were isolated from the skulls of newborn mice and cultured in vitro. The cell at density of 1×10^5/well was inoculated in the 24-well culture plate. After 3 days, the continuous PTH mimetic peptide stimulation experiment was started. The PTH mimetic peptide was added to the culture system (containing 10% serum+α-MEM medium) at the corresponding concentration. After 48 hours, when the medium is changed, the PTH mimetic peptide was added again, meaning the PTH mimetic peptide is always in the culture solution. Concentration: MY-1 peptide 10^−6 M, PTH (1-34) peptide 10^−8 M, MY-3 peptide 10^−8 M. Alkaline phosphatase staining was performed 2 weeks later, and calcium nodule staining was performed 4 weeks later (FIG. 2A, upper two rows of the holes). The expression of alkaline phosphatase and the concentration of calcium ion in each well were quantitatively detected (FIGS. 2B and 2C).
(§2) Primary osteoblasts (two rows of the holes in A) of mouse skulls were continuously treated with PTH (1-34), MY-3 and MY-1 (within the 48-hour culture cycles, PTH peptide stayed in the culture medium at all times). After 2 weeks, alkaline phosphatase (ALP) staining (A) and quantification (B) wells were performed in the cell culture. After 4 Weeks, calcium nodule staining (A) and calcium ion quantification (C) were performed in culture wells. Bone marrow cells in the femoral shaft bone marrow cavity (lower hole A) received the same treatment with three peptides as described above. Two weeks later, tartrate resistant acid phosphatase (TRAP) staining (A) and quantification (D) were performed. […] The same experiment was repeated three times and same results were obtained. […], #P<0.05 vs PTH (1-34).

[4] = system: Bone marrow cells from the bone marrow cavity of femur in 7-week-old mice; experiment: Continuous PTH mimetic peptide stimulation, osteoclast formation (TRAP); format: cell-based, mouse
Experimental: Bone marrow cells from the bone marrow cavity of femur in 7-week-old mice were extracted and seeded in 24-well plates at a density of 1×10^5/well. The 48 h continuous PTH mimetic peptide stimulation experiment was carried out as described above. After 7 days, tartrate resistant acid phosphatase (TRAP) staining (bottom row of holes in FIG. 2A) and quantification were performed (FIG. 2D).
as §2

[5] = system: Primary mouse skull osteoblasts; experiment: Realtime PCR gene expression after PTH peptide stimulation, osteoblasts; format: cell-based; conditions: intermittent stimulation
Experimental: (§3) Primary mouse skull osteoblasts (FIGS. 3A and 3B) and mouse bone marrow cells (FIGS. 3C and 3D) were cultured in cell culture plates. When the cells completely cover the bottom of the culture well, changed to a medium containing 1% fetal bovine serum, added with different concentrations of PTH mimetic peptide (the concentration is the same as above). Cells receiving intermittent stimulation (FIG. 3A and FIG. 3C) were treated with PTH peptides for 4 hours, and normal medium for 44 hours. Such 48-hour cycle repeated three times.
(§4) Cell RNA was extracted 4 hours after the last PTH peptide stimulation for Realtime PCR detection. Cells receiving continuous stimulation (FIG. 3B and FIG. 3D) were cultured in the medium with PTH peptides, and the culture medium containing peptides was changed 48 hours later. Repeated such cycle three times. After 48 hours of the last PTH peptide stimulation, cellular RNA was extracted for Realtime PCR detection. As shown in the figure, the average value and standard deviation of an independent experiment (triple holes) were obtained. The same experiment was repeated three times and same results were obtained. *P<0.05 vs control group (CON), #P<0.05 vs PTH (1-34).

mouse bone marrow cells = experiment: Realtime PCR gene expression after PTH peptide stimulation, bone marrow cells; format: cell-based; conditions: continuous stimulation of bone marrow cells (FIG. 3D)
Experimental: as §3, §4

C57BL female mice = experiment: Ovariectomy osteoporosis model, tibia histology (paraffin section); format: in vivo, mouse; conditions: OVX mice, 2 and 4 weeks, compared with the control group; MY-1 400, PTH (1-34) and MY-3 40 μg/kg/day
Experimental: An osteoporosis model was constructed by removing the ovaries of 7-week-old C57BL female mice. Mice were subcutaneously injected with PTH (3-34) (400 μg/kg/day), MY-1 peptide (400 μg/kg/day), PTH (1-34) (40 μg/kg/day) and MY-3 peptide (40 μg/kg/day) daily (5 days a week), respectively. Mice were sacrificed at 2 and 4 weeks and their tibias were separated, then the cancellous bone mass (BV/TV) and bone mineral density (BMD) of the tibias were measured by micro-CT (FIG. 4).
MY-3 has a stronger anti-bone loss effect than PTH (1-34)-through histological studies. The preparation of the osteoporosis animal model and the administration method of the PTH mimetic peptide was the same as in Example 4. After 2 and 4 weeks, the tibias of experimental mice were removed, decalcified, and prepared for paraffin section. At last, the osteoclast was stained.

[6] = clinical applications, in general; cited from earlier work

In the case of `CC[C@H](C)[C@H](NC(=O)[C@H](CCC(=O)O)NC(=O)[C@H](CO)NC(=O)[C@@H](NC(=O)[C@@H](N)CO)C(C)C)C(=O)N[C@@H](CCC(N)=O)C(=O)N[C@@H](CC(C)C)C(=O)N[C@@H](CCSC)C(=O)N[C@@H](Cc1cnc[nH]1)C(=O)N[C@@H](CC(N)=O)C(=O)N[C@@H](CC(C)C)C(=O)NCC(=O)N[C@@H](CCCCN)C(=O)N[C@@H](Cc1cnc[nH]1)C(=O)N[C@@H](CC(C)C)C(=O)N[C@@H](CC(N)=O)C(=O)N[C@@H](CO)C(=O)N[C@@H](CCSC)C(=O)N[C@@H](CCC(=O)O)C(=O)N[C@@H](CCCN=C(N)N)C(=O)N[C@H](C(=O)N[C@@H](CCC(=O)O)C(=O)N[C@@H](Cc1c[nH]c2ccccc12)C(=O)N[C@@H](CC(C)C)C(=O)N[C@@H](CCCN=C(N)N)C(=O)N[C@@H](CCCCN)C(=O)N[C@@H](CCCCN)C(=O)N[C@@H](CC(C)C)C(=O)N[C@@H](CCC(N)=O)C(=O)N[C@@H](CC(=O)O)C(=O)N[C@H](C(=O)N[C@@H](Cc1cnc[nH]1)C(=O)N[C@@H](CC(N)=O)C(=O)N[C@@H](Cc1ccccc1)C(=O)O)C(C)C)C(C)C` [PTH (1-34), Teriparatide, reference compound], the ALP ([1]; intermittent 4 h/48 h stimulation, 2 weeks, MY-1 10^−6 M, PTH (1-34) 10^−8 M, MY-3 10^−8 M, mean ± SD) was 4.91 ± 0.55 U/g protein, the Calcium ([1]; intermittent 4 h/48 h stimulation, 4 weeks, MY-1 10^−6 M, PTH (1-34) 10^−8 M, MY-3 10^−8 M, mean ± SD) was 0.49 ± .06 mmole/g protein and the “osteogenic differentiation of osteoblasts (in words)” value ([1]; intermittent stimulation) was “can promote osteogenic differentiation of osteoblasts”. For the same molecule, the TRAP ([2]; intermittent 4 h/48 h stimulation, after 7 days, MY-1 10^−6 M, PTH (1-34) 10^−8 M, MY-3 10^−8 M, mean ± SD) was 9.61 ± 1.78 U/g protein, the “osteoclast formation (in words)” value ([2]; intermittent stimulation, TRAP staining) was “the same effect of promoting osteoclast formation” and the “osteogenic differentiation of osteoblasts (in words)” value [3] was “inhibit the differentiation of osteoblasts”. The ALP ([3]; 2 weeks, MY-1 10^−6 M, PTH (1-34) 10^−8 M, MY-3 10^−8 M, mean ± SD) was 1.02 ± 0.28 U/g protein, the Calcium ([3]; 4 weeks, MY-1 10^−6 M, PTH (1-34) 10^−8 M, MY-3 10^−8 M, mean ± SD) was 0.12 ± 0.03 mmole/g protein and the “osteoclast formation (in words)” value ([4]; TRAP staining) was “the same effect on promoting osteoclast formation”. For the same molecule, the TRAP ([4]; after 7 days, MY-1 10^−6 M, PTH (1-34) 10^−8 M, MY-3 10^−8 M, mean ± SD) was 11.80 ± 1.99 U/g protein, the “expression of osteogenic marker gene ALP and OC (in words)” value [5] was “promote the expression of osteogenic marker gene ALP and OC” and the “RANKL expression (in words)” value (mouse bone marrow cells) was “significantly promoted RANKL expression”. The “expression of ALP and OC (in words)” value (mouse bone marrow cells) was “inhibited the expression of ALP and OC”, the “number of trabecular bones (in words)” value (C57BL female mice) was “increased” and the “reduction of the incidence of vertebral fractures” value [6] was “about 76%”.
